Measurements: ChEMBL document CHEMBL1129190, “Solid-phase parallel synthesis applied to lead optimization: Discovery of potent analogues of the GPIIb/IIIa antagonist RWJ-50042” (Bioorg Med Chem Lett, 1996)
pIC50: −log10 of the molar value.

Biological target: Integrin alpha-IIb/beta-3 (Homo sapiens, UniProt P05106+P08514)
Assay: In vitro inhibition of biotinylated fibrinogen binding to immobilized integrin alpha IIb beta3
Type: protein-complex assay

Sequence of Integrin alpha-IIb/beta-3 (P05106 27-788 limits assumed): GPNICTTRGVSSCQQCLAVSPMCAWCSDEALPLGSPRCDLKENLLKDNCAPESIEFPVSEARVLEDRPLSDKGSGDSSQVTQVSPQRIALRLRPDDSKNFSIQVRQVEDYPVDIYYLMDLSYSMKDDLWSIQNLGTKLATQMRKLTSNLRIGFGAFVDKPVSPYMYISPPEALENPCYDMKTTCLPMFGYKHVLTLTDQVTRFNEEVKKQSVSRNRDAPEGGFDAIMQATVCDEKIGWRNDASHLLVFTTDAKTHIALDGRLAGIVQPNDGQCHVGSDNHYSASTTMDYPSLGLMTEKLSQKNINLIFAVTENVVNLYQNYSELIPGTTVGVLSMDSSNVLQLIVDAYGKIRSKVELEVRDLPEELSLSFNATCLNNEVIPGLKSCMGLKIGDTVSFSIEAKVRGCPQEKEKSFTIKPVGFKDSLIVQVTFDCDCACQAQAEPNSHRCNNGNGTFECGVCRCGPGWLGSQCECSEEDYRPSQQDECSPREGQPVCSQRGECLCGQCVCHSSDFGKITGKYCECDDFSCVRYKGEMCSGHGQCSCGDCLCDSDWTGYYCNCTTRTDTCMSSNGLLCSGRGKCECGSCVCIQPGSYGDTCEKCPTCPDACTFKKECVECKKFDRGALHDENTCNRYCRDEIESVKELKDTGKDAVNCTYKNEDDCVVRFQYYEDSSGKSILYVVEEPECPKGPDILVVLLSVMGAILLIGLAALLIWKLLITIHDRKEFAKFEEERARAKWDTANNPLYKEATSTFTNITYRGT
Sequence of Integrin alpha-IIb/beta-3 (P08514 32-887 limits assumed): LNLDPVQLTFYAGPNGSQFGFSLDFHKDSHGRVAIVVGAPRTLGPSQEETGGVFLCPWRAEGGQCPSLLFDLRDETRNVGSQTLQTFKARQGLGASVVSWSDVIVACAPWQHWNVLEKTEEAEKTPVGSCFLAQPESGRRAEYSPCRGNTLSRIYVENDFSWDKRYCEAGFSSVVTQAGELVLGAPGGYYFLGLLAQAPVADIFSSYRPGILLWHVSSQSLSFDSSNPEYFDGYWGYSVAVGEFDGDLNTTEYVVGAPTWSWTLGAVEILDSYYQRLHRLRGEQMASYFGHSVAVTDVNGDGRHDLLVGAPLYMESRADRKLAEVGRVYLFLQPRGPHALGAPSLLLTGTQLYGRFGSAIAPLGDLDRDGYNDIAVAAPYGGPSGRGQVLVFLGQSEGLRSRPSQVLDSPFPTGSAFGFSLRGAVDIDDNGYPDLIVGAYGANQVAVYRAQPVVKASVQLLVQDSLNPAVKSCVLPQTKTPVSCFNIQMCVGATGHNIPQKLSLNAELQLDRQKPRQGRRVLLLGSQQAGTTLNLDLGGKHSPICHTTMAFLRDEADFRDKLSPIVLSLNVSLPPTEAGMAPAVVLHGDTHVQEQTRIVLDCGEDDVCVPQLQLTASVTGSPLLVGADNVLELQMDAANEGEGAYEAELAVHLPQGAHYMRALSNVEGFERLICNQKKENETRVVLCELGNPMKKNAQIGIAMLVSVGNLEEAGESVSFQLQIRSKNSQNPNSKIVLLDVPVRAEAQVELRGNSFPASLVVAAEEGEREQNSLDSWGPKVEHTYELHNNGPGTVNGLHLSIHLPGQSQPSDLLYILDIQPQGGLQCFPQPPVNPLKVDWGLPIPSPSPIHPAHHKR
Sequence of Integrin alpha-IIb/beta-3 (P08514 891-1039 limits assumed): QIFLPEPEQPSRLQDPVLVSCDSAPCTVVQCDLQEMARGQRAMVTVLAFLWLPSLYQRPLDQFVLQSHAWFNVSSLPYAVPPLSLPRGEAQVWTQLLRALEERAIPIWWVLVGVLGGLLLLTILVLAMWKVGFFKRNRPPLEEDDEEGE

Row | SMILES | pIC50
1 | CC(CNC(=O)C1CCCN(C(=O)CCC2CCNCC2)C1)C(=O)O (centres undefined) | < 7.00
2 | COC(=O)C(CC(=O)O)NC(=O)C1CCCN(C(=O)CCC2CCNCC2)C1 (centres undefined) | 8.52
3 | O=C(O)CCNC(=O)C1CCCCN(C(=O)CCC2CCNCC2)C1 (centres undefined) | 8.00
4 | O=C(O)CCNC(=O)C1CCN(C(=O)CCC2CCNCC2)CC1 | < 7.00
5 | O=C(O)CCNC(=O)C1CCCN(C(=O)NCC2CCNCC2)C1 (centres undefined) | 7.70
6 | O=C(NCCS(=O)(=O)O)C1CCCN(C(=O)CCC2CCNCC2)C1 (centres undefined) | 6.70
7 | O=C(O)CCNC(=O)[C@@H]1CCCN(C(=O)CCC2CCNCC2)C1 | 8.22
8 | O=C(O)CCNC(=O)[C@H]1CCCN(C(=O)CCC2CCNCC2)C1 | 8.40
9 | O=C(O)C(O)CNC(=O)C1CCCN(C(=O)CCC2CCNCC2)C1 (centres undefined) | 8.30
10 | O=C(O)C[C@H](NC(=O)[C@@H]1CCCN(C(=O)CCC2CCNCC2)C1)c1cccs1 | 10.00
11 | O=C(O)C1CN(C(=O)C2CCCN(C(=O)CCC3CCNCC3)C2)CCC1=O (centres undefined) | 8.05
12 | O=C(O)C1CCCC(NC(=O)C2CCCN(C(=O)CCC3CCNCC3)C2)C1 (centres undefined) | < 4.30
13 | O=C(O)C[C@H](NC(=O)[C@@H]1CCCN(C(=O)CCC2CCNCC2)C1)c1cnc2ccccc2c1 | 10.00
14 | O=C(O)CCNC(=O)C1CCCN(C(=O)CCC2CCNCC2)C1 (centres undefined) | 8.22
15 | O=C(O)CCNC(=O)C1CCCN(S(=O)(=O)CCC2CCNCC2)C1 (centres undefined) | 7.70
16 | O=C(O)CCNC(=O)C1CCCN(C(=O)OCC2CCNCC2)C1 (centres undefined) | 7.70
17 | CC(CC(=O)O)NC(=O)C1CCCN(C(=O)CCC2CCNCC2)C1 (centres undefined) | 8.52
18 | O=C(O)C[C@@H](C#Cc1ccccc1)NC(=O)[C@@H]1CCCN(C(=O)CCC2CCNCC2)C1 | 8.52
19 | O=C(NCCc1nnn[nH]1)C1CCCN(C(=O)CCC2CCNCC2)C1 (centres undefined) | 6.22
20 | CN(CCC(=O)O)C(=O)C1CCCN(C(=O)CCC2CCNCC2)C1 (centres undefined) | 6.70
21 | O=C(O)CCNC(=O)C1CCCN(C(=O)CCN2CCNCC2)C1 (centres undefined) | 8.70
22 | O=C(O)CCNC(=O)C1CCN(C(=O)CCC2CCNCC2)C1 (centres undefined) | 8.15
23 | CC(C)(C)C#C[C@H](CC(=O)O)NC(=O)[C@@H]1CCCN(C(=O)CCC2CCNCC2)C1 | 7.68
24 | CC(C)CC(CC(=O)O)NC(=O)C1CCCN(C(=O)CCC2CCNCC2)C1 (centres undefined) | 8.70
